Usually CLint scaled stands for the rate of metabolic loss divided by the concentration. A lower CLint scaled goes with greater metabolic stability.

One data set concerns the target T1, Ba/F3-FL-EGFR (Homo sapiens, UniProt P00533).
T1 construct: FL read as full length
As to the kind of experiment: CellTiter-Glo proliferation, Ba/F3-FL-EGFR. It is filed as cell-based. The following applies: 72 hours, read-out: Ba/F3-FL-EGFR IC50/nM. Summed up: (§1)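 Ba/F3 lines dependent on the indicated EGFR variants were treated with compounds at a final DMSO concentration of 0.1% at 37 °C, 5% CO2. Viability was read by CellTiter-Glo luminescence, and inhibition rate was normalised to DMSO-treated cells (max) and medium-only wells (min). IC50 came from inhibition curves.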
A general note: In ATP-based viability assays light output follows the ATP content of the culture.

The target of another data set is Ba/F3-FL-EGFR-L858R (Homo sapiens, UniProt P00533, L858R, cells depend on it). As to the kind of experiment: CellTiter-Glo proliferation, Ba/F3-FL-EGFR-L858R. It is filed as cell-based. Particulars: 72 hours, read-out: Ba/F3-FL-EGFR-L858R IC50/nM. Summed up:
as §1

Data set [1] addresses T2, Ba/F3-TEL-EGFR-L858R-C797S (Homo sapiens, UniProt P00533, C797S/L858R, cells depend on it).
T2 construct: fused on or other part: N-terminal TEL (ETV6) oligomerising part fused to the EGFR intracellular/kinase part; P41212 (Transcription factor ETV6)
As to the kind of experiment: CellTiter-Glo proliferation, Ba/F3-TEL-EGFR-L858R-C797S. Particulars: 72 hours, read-out: Ba/F3-TEL-EGFR-L858R-C797S IC50/nM. Type of data set: cell-based. Summed up:
as §1

Data set [2] addresses Ba/F3-FL-EGFR-L858R-T790M-C797S (Homo sapiens, UniProt P00533, T790M/C797S/L858R, cells depend on it). As to the kind of experiment: CellTiter-Glo proliferation, Ba/F3-FL-EGFR-L858R-T790M-C797S. It is filed as cell-based. Particulars: 72 hours, read-out: Ba/F3-FL-EGFR-L858R-T790M-C797S IC50/nM. In short, it runs like this:
as §1

For data set [3], the system named is Ba/F3-FL-EGFR-del19-C797S. As to the kind of experiment: CellTiter-Glo proliferation, Ba/F3-FL-EGFR-del19-C797S. Type of data set: cell-based. Particulars: 72 h, proliferation, 72 hours, CellTiter-Glo; read-out: Ba/F3-FL-EGFR-del19-C797S IC50/nM. Summed up:
as §1

Data set [4] concerns the target Ba/F3-FL-EGFR-del19-T790M-C797S (Homo sapiens, UniProt P00533, DEL746-750/T790M/C797S, cells depend on it). As to the kind of experiment: CellTiter-Glo proliferation, Ba/F3-FL-EGFR-del19-T790M-C797S. Type of data set: cell-based. Particulars: 72 hours, read-out: Ba/F3-FL-EGFR-del19-T790M-C797S IC50/nM. Here is the method: Promega CellTiter-Glo reagent was used to detect the effects of small molecule inhibitors on the proliferation of three Ba/F3 cell lines (Ba/F3-FL-EGFR-de119, Ba/F3-FL-EGFR-de119-T790M, Ba/F3-FL-EGFR-de119-T790M-C797S).
The cell lines were cultured in an incubator at 37° C. and 5% CO2. Cells were passaged regularly and cells in the logarithmic phase were used for plating. 95 μL of cell suspension was added to each well of the cell plate, and culture medium without cells (containing 0.1% DMSO) was added to the Min control wells. Substance addition for compound detection cell plate: 5 μL of 20× compound working solution was added to the cell culture plate. 5 μL of DMSO-cell culture medium mixture was added to the Max control, with the final DMSO concentration of 0.1%. 5 μL of DMSO-cell culture medium mixture was added to the Max control. The final DMSO concentration was 0.1%.
Cell viability was detected by CellTiter-Glo luminescence assay. Data analysis:
The cell proliferation inhibition rate (Inhibition Rate) data was processed using the following formula: […]
wherein: RLUDrug represents the relative luminescence unit of the cells with the addition of drug, RLUMin represents the luminescence unit of the culture medium, and RLUMax represents the relative luminescence unit of the cells with the addition of DMSO.
The inhibition rates corresponding to different concentrations of compounds were calculated in EXCEL, and then the inhibition rate curve was plotted using GraphPad Prism software and related parameters including the maximum and minimum inhibition rates of cells and IC50 values were calculated.

A short description of data set [5]: Liver microsome stability test, human. Type of data set: in vitro ADME. Particulars: human liver microsomes 0.5 mg/ml, compound 1 μM, NADPH 1 mM, within 60 minutes. Here is the method: (§2) The compounds of the present disclosure were subjected to a liver microsome stability test. The compounds to be tested were co-incubated with liver microsomes of different species with or without the addition of NADPH. The final concentration of the compounds to be tested in the test system was 1 μM. The final concentration of NADPH was 1 mM, and the final concentration of liver microsomes was 0.5 mg/ml.
In general terms: Liver microsomes are a subcellular fraction often used to study metabolism.

The nature of data set [6]: Liver microsome stability test, mouse. Particulars: mouse liver microsomes 0.5 mg/ml, compound 1 μM, NADPH 1 mM, within 60 minutes. It is filed as in vitro ADME. Here is the method:
as §2

Data set [7] deals with BaF3 (del19/T790M1C797S) tumor cells. As to the kind of experiment: In vivo efficacy assay in BALB/c nude mice, subcutaneous BaF3 tumor. Particulars: for TGI: based on final tumor volume. Here is the method: In vivo efficacy assay in BALB/c nude mice. Details were as follows:
BaF3 (del19/T790M1C797S) tumor cells were cultured and inoculated into 6-8 weeks old female BALB/c nude mice (weighing about 20 g), with all mice being subcutaneously inoculated. The mice were cultured in an SPF-grade experimental environment, and all mice had free access to commercially certified standard diets. When the average tumor volume of the mice grew to about 150 mm^3, the test compound was orally administered daily. The dosage was as follows: blank group vehicle (DMSO/Solutol/H2O, 5/10/85). […] The tumor volume was measured three times a week with a two-dimensional caliper, and the animals were weighed every day. […] The volume calculation formula is: V=1/2a*b^2, where a represents the long diameter of the tumor, and b represents the short diameter of the tumor.

The target in data set [8] is Ba/F3-FL-EGFR-Del19 (E746-A750) (Homo sapiens, UniProt P00533, DEL746-750, cells depend on it). As to the kind of experiment: CellTiter-Glo proliferation, Ba/F3-FL-EGFR-Del19. Particulars: read-out: Ba/F3-FL-EGFR-Del19 (E746-A750), 72 hours.
Chain of Ba/F3-FL-EGFR-Del19 (E746-A750) (P00533 with tags, fused parts or gaps DEL746-750): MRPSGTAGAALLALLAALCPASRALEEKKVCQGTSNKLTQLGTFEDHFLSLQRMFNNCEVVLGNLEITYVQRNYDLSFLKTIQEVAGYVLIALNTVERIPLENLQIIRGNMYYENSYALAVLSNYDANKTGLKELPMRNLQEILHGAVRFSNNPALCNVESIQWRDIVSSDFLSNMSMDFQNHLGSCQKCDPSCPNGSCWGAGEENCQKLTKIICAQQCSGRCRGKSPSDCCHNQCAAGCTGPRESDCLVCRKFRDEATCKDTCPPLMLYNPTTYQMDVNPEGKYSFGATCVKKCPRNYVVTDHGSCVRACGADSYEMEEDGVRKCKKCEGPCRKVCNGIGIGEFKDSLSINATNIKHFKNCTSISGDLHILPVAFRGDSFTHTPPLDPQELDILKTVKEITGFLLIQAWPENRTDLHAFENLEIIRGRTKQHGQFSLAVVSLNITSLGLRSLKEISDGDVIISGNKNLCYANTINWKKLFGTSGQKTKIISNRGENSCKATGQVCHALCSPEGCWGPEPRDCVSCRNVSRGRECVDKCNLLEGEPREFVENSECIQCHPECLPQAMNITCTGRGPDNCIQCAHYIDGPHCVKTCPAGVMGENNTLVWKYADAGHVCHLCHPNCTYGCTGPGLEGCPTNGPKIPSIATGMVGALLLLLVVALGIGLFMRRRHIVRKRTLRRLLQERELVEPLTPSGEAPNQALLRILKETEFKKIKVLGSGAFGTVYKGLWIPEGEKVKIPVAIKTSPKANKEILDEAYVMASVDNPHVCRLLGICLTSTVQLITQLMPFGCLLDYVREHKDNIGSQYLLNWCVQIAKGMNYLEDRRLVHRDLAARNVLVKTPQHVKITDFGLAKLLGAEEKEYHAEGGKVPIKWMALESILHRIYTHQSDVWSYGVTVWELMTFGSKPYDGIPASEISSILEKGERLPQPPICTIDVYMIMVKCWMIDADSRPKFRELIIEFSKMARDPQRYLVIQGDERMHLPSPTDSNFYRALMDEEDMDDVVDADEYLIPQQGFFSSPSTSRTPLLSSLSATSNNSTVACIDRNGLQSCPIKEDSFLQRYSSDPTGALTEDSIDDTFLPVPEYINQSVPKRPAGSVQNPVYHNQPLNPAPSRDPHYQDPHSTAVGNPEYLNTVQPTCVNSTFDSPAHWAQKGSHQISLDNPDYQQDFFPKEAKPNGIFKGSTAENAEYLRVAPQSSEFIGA
Data set [9] addresses Ba/F3-FL-EGFR-del19/T790M (Homo sapiens, UniProt P00533, DEL746-750/T790M, cells depend on it). As to the kind of experiment: CellTiter-Glo proliferation, Ba/F3-FL-EGFR-del19/T790M. The following applies: read-out: Ba/F3-FL-EGFR-del19/T790M IC50/nM, 72 hours.
Setting [10] is: 100 mg/kg BID oral (50 mg/kg for the first 4 days, 100 mg/kg from the 5th day), after 13 days.

Bounds are passed on as bounds.

Chain of Ba/F3-FL-EGFR-L858R (P00533 whole entry L858R): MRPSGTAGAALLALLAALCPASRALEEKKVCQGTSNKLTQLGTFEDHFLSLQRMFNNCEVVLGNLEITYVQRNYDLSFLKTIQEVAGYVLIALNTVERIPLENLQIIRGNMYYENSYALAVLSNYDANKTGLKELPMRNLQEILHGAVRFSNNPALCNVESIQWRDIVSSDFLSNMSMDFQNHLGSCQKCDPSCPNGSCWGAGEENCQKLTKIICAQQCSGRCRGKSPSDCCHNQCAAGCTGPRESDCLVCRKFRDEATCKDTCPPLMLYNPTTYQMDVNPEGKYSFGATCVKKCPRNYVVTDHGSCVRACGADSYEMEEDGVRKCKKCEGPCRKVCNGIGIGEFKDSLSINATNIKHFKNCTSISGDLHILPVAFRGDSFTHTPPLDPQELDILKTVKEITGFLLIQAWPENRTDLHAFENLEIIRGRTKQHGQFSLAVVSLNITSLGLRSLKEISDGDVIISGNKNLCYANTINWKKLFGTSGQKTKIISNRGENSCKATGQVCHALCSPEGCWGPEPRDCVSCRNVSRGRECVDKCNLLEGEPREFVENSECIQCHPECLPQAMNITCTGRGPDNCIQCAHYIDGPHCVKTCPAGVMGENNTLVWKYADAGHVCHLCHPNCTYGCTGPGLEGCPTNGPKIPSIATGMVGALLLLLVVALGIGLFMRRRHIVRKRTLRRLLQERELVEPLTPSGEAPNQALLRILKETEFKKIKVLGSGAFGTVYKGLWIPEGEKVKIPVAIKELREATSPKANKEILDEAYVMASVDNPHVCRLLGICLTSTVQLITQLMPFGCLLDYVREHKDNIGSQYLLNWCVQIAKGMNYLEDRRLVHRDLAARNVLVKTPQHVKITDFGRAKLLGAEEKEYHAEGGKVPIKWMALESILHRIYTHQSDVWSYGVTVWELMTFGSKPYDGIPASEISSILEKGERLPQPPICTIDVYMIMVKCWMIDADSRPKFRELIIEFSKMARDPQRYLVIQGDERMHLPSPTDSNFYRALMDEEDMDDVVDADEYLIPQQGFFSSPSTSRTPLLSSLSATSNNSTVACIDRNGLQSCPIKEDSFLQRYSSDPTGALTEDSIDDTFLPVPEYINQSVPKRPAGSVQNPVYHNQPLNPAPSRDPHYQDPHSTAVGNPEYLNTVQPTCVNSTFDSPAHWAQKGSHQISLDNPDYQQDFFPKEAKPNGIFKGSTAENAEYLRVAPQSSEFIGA
Chain of Ba/F3-FL-EGFR-L858R-T790M-C797S (P00533 whole entry T790M/C797S/L858R): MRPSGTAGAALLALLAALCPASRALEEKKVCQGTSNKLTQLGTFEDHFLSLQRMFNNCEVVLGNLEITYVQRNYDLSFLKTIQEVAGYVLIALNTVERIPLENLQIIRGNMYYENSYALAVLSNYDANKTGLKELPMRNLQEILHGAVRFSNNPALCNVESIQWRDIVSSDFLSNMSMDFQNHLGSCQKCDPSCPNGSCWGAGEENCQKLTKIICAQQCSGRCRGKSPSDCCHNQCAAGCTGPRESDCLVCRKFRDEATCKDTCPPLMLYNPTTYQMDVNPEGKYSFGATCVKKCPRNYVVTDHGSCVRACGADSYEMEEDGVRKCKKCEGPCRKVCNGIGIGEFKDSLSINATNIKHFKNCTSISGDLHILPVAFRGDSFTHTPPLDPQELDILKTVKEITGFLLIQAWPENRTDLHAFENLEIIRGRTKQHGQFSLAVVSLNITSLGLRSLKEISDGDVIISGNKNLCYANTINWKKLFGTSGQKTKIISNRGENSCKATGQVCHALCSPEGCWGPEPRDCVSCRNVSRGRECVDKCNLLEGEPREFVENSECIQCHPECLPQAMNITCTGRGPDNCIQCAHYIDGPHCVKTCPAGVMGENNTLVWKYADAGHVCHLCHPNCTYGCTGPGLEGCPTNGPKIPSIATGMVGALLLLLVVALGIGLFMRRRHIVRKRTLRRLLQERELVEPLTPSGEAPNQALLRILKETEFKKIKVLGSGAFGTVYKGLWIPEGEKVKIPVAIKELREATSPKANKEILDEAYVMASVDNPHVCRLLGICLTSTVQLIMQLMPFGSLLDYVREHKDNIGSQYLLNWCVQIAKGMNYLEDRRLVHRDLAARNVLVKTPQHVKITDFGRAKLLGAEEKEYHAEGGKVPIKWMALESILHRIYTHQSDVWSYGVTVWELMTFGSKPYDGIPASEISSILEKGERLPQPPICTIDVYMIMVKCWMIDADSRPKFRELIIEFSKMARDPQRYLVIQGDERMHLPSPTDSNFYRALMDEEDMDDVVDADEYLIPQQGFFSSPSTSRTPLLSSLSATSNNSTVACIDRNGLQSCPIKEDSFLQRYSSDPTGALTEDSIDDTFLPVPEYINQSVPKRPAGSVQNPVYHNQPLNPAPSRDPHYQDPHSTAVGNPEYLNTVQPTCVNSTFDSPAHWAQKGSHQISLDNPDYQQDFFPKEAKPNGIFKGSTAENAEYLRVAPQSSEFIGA
T2 sequence (P00533 whole entry C797S/L858R, the tested form may be a part): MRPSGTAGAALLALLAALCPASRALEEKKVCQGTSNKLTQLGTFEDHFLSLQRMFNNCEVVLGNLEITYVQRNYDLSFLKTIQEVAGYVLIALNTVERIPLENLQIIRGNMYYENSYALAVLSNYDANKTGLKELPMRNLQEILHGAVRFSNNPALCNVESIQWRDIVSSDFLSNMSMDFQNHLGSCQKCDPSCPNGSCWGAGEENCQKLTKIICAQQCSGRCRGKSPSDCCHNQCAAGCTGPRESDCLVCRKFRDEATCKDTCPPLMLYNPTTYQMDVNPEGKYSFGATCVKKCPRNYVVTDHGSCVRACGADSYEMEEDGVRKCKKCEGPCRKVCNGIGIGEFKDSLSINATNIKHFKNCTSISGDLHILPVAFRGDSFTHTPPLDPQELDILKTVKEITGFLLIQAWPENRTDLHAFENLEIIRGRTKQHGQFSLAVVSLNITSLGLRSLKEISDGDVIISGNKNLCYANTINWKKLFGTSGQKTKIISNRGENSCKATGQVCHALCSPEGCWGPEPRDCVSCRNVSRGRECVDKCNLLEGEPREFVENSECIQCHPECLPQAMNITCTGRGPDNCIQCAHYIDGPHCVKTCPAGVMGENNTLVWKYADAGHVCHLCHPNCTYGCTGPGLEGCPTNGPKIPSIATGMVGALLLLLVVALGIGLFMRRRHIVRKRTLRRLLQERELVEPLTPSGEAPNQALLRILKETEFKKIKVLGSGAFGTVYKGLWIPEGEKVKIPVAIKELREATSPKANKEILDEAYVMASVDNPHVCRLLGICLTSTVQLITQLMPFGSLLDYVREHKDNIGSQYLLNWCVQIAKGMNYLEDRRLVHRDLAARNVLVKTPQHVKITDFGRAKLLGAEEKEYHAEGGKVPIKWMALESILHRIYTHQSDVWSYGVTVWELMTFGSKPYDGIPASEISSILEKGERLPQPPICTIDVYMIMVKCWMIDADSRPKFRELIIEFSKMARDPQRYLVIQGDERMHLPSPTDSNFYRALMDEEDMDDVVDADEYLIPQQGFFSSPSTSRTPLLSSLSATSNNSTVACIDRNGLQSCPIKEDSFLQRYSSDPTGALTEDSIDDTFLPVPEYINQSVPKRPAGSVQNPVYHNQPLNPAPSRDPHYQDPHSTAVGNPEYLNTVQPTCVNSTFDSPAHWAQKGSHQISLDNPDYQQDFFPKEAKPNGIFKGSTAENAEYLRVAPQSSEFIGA

Turning to `CC(C)c1ccc(N2C[C@H](N(C)S(C)(=O)=O)[C@H]2C)c2cnc(Nc3ccnc(-c4cnn(S(=O)(=O)C5CC5)c4)n3)cc12` [Compound H23], the GI50 at Ba/F3-FL-EGFR was found to be 121 nM; at Ba/F3-FL-EGFR-L858R, 3.7 nM; in [1], 4.3 nM; in data set [2], 10 nM; in [4], 3.1 nM; in data set [8], 3.1 nM. For the same molecule, in data set [9], the GI50 stood at 0.3 nM. For the same molecule, the IC50 in data set [3] worked out at 3.1 nM. For the same molecule, the CLint scaled at 1 μM was less than 8.6 mL/min/kg in data set [5] and 448 mL/min/kg in [6]. The “Tumor volume (mm^3)” value in [7] (setting [10]) was 28 mm^3. Moreover, the TGI in data set [7] (setting [10]) was determined as 103%.

With `CC(C)c1ccc(N2C[C@H](N(C)S(C)(=O)=O)[C@H]2C)c2cnc(Nc3ccnc(N4CC[C@@H](O)[C@@H](F)C4)n3)cc12` [Compound P41a], the GI50 at Ba/F3-FL-EGFR came out at 693 nM; at Ba/F3-FL-EGFR-L858R, 22 nM; in [1], 7.1 nM; in [2], 4.6 nM; in data set [4], 5.9 nM; in [8] it was 54 nM. For the same molecule, the GI50 in [9] amounted to 3.2 nM. For the same molecule, the IC50 in [3] stood at 57 nM. Moreover, the “Tumor volume (mm^3)” value in data set [7] (100 mg/kg, BID, oral, after 13 consecutive days of administration) was 693 mm^3. Further, in data set [7] (100 mg/kg, BID, oral, after 13 consecutive days), the TGI was 85%.
